From patent US8853193B2, “Thienopyrimidines containing a substituted alkyl group for pharmaceutical compositions” (Boehringer Ingelheim International GmbH, priority 2010, dated 2014)
Counter-ions that a name gives are not always drawn.

biological target: human Mnk2a (Homo sapiens (Human), UniProt Q9HBH9); assay: Mnk2a in vitro kinase assay (indirect competitive fluorescence polarization); type: biochemical; conditions: pre-activated GST-Mnk2a 2.5 nM, 20 μM ATP, 30 μM substrate peptide; read-out: MNK2 IC50
Sequence (Q9HBH9 whole entry): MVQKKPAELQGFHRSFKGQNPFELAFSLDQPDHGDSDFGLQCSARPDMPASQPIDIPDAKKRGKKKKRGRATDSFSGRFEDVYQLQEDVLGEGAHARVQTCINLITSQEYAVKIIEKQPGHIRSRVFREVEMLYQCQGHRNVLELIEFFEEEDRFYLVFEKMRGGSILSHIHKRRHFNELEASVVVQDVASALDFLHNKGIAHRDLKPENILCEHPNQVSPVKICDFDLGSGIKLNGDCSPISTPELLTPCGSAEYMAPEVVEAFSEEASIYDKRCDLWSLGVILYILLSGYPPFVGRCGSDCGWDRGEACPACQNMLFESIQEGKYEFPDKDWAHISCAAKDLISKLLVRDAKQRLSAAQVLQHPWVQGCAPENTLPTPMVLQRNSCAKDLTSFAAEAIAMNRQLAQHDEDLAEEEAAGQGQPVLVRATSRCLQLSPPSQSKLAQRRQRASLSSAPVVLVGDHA
Protocol: Inhibitory potency of compounds against Mnk1, Mnk2a and other kinases was assessed with assays based on a format known to those skilled in the art as the indirect (competitive) fluorescence polarization. The assay detection system comprises a small fluorophore-labeled phospho-peptide (termed ligand) bound to a phospho-specific antibody. The product generated by the kinase reaction competes with the ligand for antibody binding. Based on the larger molecular volume of the bound ligand, which results in a lower rotation rate in solution, its emitted light has a higher degree of polarization than the one from the free ligand.
In brief, the open reading frames of human Mnk1 and Mnk2a were amplified from cDNA using the forward/reverse primer pairs
(utilized restriction sites underlined), respectively, and cloned into the BamHI and SalI sites of the vector pGEX-4T1 (Amersham, Sweden, cat. no. 27-4580-01). These constructs allow prokaryotic expression of Mnk1 or Mnk2a as fusion protein with a N-terminal glutathione S-transferase (GST) tag, referred to as GST-Mnk1 or GST-Mnk2a. The following expression and purification procedure was identical for GST-Mnk1 and GST-Mnk2a, referring in general to GST-Mnk, when not distinguishing between the two isoforms. Expression of GST-Mnk was in E. coli BL21 (Merck Biosciences, Germany, cat. no. 69449). Cells were grown in LB-Bouillon (Merck, Germany, cat. no. 1.10285) supplemented with 100 μg/ml ampicillin (Sigma, Germany, cat. no. A9518) at 37° C. […] Cells harvested by centrifugation were resuspended in 10 ml lysis buffer (50 mM tris(hydroxymethyl)aminomethane hydrochloride (Tris/HCl, Sigma, Germany, cat. no. T5941) pH 7.5, 300 mM sodium chloride (NaCl, Sigma, Germany, cat. no. S7653), 5% (w/v) glycerol (Sigma, Germany, cat. no. G5516), 3 mM DTT dithiotreitol (DTT, Sigma, Germany, cat. no. D9779)) per gram wet weight cell pellet. Lysates were prepared by disruption of cells with a sonifier and subsequent clearing by centrifugation at 38000 g for 45 min at 4° C.
The lysate was applied to a GSTPrep FF 16/10 column (Amersham, Sweden, cat. no. 17-5234-01) equilibrated with lysis buffer. Removal of unbound material was with 3 column volumes (CV) lysis buffer. Elution was with 2 CV of elution buffer (50 mM Tris/HCl pH 7.5, 300 mM NaCl, 5% (w/v) glycerol, 20 mM glutathione (Sigma, Germany, cat. no. G4251)). Peak fractions were pooled and the protein transferred into storage buffer (50 mM Tris/HCl pH 7.5, 200 mM NaCl, 0.1 mM ethylene glycol[…] bis(2-aminoethylether)-N,N,N′,N′-tetraacetic acid (EGTA, Aldrich, Germany, cat. no. 23, 453-2), 1 mM DTT, 10% (w/v) glycerol, 0.5 M sucrose (Sigma, Germany, cat. no. S0389) by gel filtration on a PD10 desalting column (Amersham, Sweden, cat. no. 17-0851-01). Aliquots were shock frozen in liquid nitrogen and stored at −80° C.
Activation of Mnk1 and Mnk2a was at a concentration of 2.5 μM of either purified GST-Mnk1 or GST-Mnk2a by incubation with 150 nM pre-activated NHis-ERK2 (see ERK2 assay for preparation) and 50 μM adenosine triphosphate (ATP, Sigma, cat. no. A2699) in a buffer comprising 20 mM N-(2-hydroxyethyl)piperazine-N′-(2-ethanesulfonic acid) (HEPES, Fluka, Germany, cat. no 54459)/potassium hydroxide (KOH, Roth, Germany, cat. no 6751.1) pH 7.4, 10 mM magnesium chloride (MgCl2, Sigma, Germany, cat. no. M2670), 0.25 mM DTT, 0.05% (w/v) polyoxyethylene 20 stearylether (Brij 78, Sigma, Germany, cat. no. P4019) (HMDB buffer) for 45 min at 30° C. After the incubation, the preparation was aliquoted into single-use samples, shock frozen in liquid nitrogen, stored at −80° C. and utilized for Mnk1 or Mnk2a kinase assays as detailed below.
The serine residue phosphorylated by Mnk kinases is underlined.

| Compound | IC50 |
| --- | --- |
| Cc1c(C(N)=O)sc2ncnc(Nc3ccc(F)cc3OC(CF)CF)c12 [Compound 23-3, 4-(2-(1,3-Difluoropropan-2-yloxy)-4-fluorophenylamino)-5-methyl-thieno[2,3-d]pyrimidine-6-carboxamide] | 4 nM |
| Cc1c(C(=O)O)sc2ncnc(Nc3ccc(F)cc3OC(C)CNC(=O)OC(C)(C)C)c12 (stereo not drawn) [Compound 1-2, 4-(2-(1-(tert-Butoxycarbonylamino)propan-2-yloxy)-4-fluorophenylamino)-5-methyl-thieno[2,3-d]pyrimidine-6-carboxylic acid] | 52 nM |
| COC(=O)c1sc2ncnc(Nc3ccc(F)cc3OC(C)CNS(=O)(=O)C(C)C)c2c1C (stereo not drawn) [Compound 3-2, Methyl 4-(4-fluoro-2-(1-(1-methylethylsulfon-amino)propan-2yloxy)-phenylamino)-5-methyl-thieno[2,3-d]pyrimidine-6-carboxylate] | 204 nM |
| Cc1c(C(=O)NCCO)sc2ncnc(Nc3cccnc3OC(C)C(F)(F)F)c12 (stereo not drawn) [Compound 21-8, 5-Methyl-4-[2-(2,2,2-trifluoro-1-methyl-ethoxy)-pyridin-3-ylamino]-thieno[2,3-d]pyrimidine-6-carboxylic acid (4-hydroxy-ethyl)-amide] | 20 nM |
| COC(=O)c1sc2ncnc(Nc3ccc(F)cc3OC(C)CCNS(C)(=O)=O)c2c1C (stereo not drawn) [Compound 13, Methyl 4-(4-fluoro-2-(4-(methylsulfonamido)butan-2yloxy)phenylamino)-5-methyl-thieno[2,3-d]pyrimidine-6-carboxylate] | 90 nM |
| Cc1c(C(=O)NS(C)(=O)=O)sc2ncnc(Nc3ccc(F)cc3OC(CF)CF)c12 [Compound 24, 4-(2-(1,3-Difluoropropan-2-yloxy)-4-fluorophenylamino)-5-methyl-N-(methylsulfonyl)thieno[2,3-d]pyrimidine-6-carboxamide] | 7 nM |
| Cc1c(C(N)=O)sc2ncnc(Nc3ccc(F)cc3O[C@@H](C)CN)c12 (racemic) [Compound 6-2, (R) and (S)-4-(2-(1-aminopropan-2-yloxy)-4-fluorophenylamino)-5-methylthieno[2,3-d]pyrimidine-6-carboxamide trifluoroacetate] | 90 nM |
| Cc1c(C(=O)O)sc2ncnc(Nc3ccc(F)cc3OC(C)CC(C)(C)O)c12 (stereo not drawn) [Compound 20-2, 4-(4-fluoro-2-(4-hydroxy-4-methylpentan-2-yloxy)phenylamino)-5-methyl-thieno[2,3-d]pyrimidine-6-carboxylic acid] | 25 nM |
| COC(=O)c1sc2ncnc(Nc3ccc(F)cc3OC(CN)CN)c2c1C [Compound 18-2, Methyl 4-(2-(1,3-diaminopropan-2-yloxy)-4-fluorophenylamino)-5-methylthieno[2,3-d]pyrimidine-6-carboxylate bis(trifluoroacetate)] | 691 nM |
| Cc1c(C(=O)O)sc2ncnc(Nc3cccnc3OCC(C)F)c12 (stereo not drawn) [Compound 27-2, 4-(2-(2-Fluoropropoxy)pyridin-3-ylamino)-5-methyl-thieno[2,3-d]pyrimidine-6-carboxylic acid] | 33 nM |
| COC(=O)c1sc2ncnc(Nc3ccc(F)cc3OC(C)CC(C)(C)O)c2c1C (stereo not drawn) [Compound 20-1, Methyl 4-(4-fluoro-2-(4-hydroxy-4-methylpentan-2-yloxy)phenylamino)-5-methyl-thieno[2,3-d]pyrimidine-6-carboxylate] | 142 nM |
| Cc1c(C(=O)NCC#CCN(C)C)sc2ncnc(Nc3cccnc3OC(C)C(F)(F)F)c12 (stereo not drawn) [Compound 21-7, 5-Methyl-4-[2-(2,2,2-trifluoro-1-methyl-ethoxy)-pyridin-3-ylamino]-thieno[2,3-d]pyrimidine-6-carboxylic acid (4-dimethylamino-but-2-ynyl)-amide] | 24 nM |
| Cc1c(C(=O)NCCCN(C)C)sc2ncnc(Nc3ccc(F)cc3OC(C)CNS(C)(=O)=O)c12 (stereo not drawn) [Compound 3-3] | 18 nM |
| COCC(C)Oc1ncccc1Nc1ncnc2sc(C(N)=O)c(C)c12 (stereo not drawn) [Compound 28-3, 4-(2-(1-Methoxygrogan-2-yloxy)gyridin-3-ylamino)-5-methyl-thieno[2,3-d]gyrimidine-6-carboxamide] | 26 nM |
| COC(=O)c1sc2ncnc(Nc3ccc(F)cc3OC(CN)CNS(C)(=O)=O)c2c1C (stereo not drawn) [Compound 19-2, Methyl 4-(2-(1-amino-3-(methyl-sulfonamido)-propan-2-yloxy)-4-fluoro-phenylamino)-5-methylthieno[2,3-d]pyrimidine-6-carboxylate trifluoroacetate] | 1170 nM |
| CNC(=O)c1sc2ncnc(Nc3ccc(F)cc3OC(CF)CF)c2c1C [Compound 23-4, 4-(2-(1,3-difluoro-propan-2-yloxy)-4-fluorophenylamino)-N,5-dimethylthieno [2,3d]pyrimidine-6-carboxamide] | 8 nM |
| Cc1c(C(=O)NCCO)sc2ncnc(Nc3ccc(F)cc3OC(C)CNC(=O)OC(C)(C)C)c12 (stereo not drawn) [Compound 1-5, tert-Butyl 2-(5-fluoro-2-(6-(2-hydroxyethyl-carbamoyl)-5-methylthieno[2,3-d]-pyrimidin-4-yl-amino)-phenoxy)propyl-carbamate] | 459 nM |
| Cc1c(C(=O)NCCCN(C)C)sc2ncnc(Nc3ccc(F)cc3OC(C)CC(C)(C)O)c12 (stereo not drawn) [Compound 20-3, N-(3-(Dimethylamino)propyl)-4-(4-fluoro-2-(4-hydroxy-4-methylpentan-2-yloxy)phenylamino)-5-methyl-thieno[2,3-d]pyrimidine-6-carboxamide trifluoroacetate] | 59 nM |
| CCNC(=O)C(C)Oc1cc(F)ccc1Nc1ncnc2sc(C(N)=O)c(C)c12 (stereo not drawn) [Compound 31-5, 4-(2-(1-(Ethylamino)-1-oxopropan-2-yloxy)-4-fluorophenylamino)-5-methyl-thieno[2,3-d]pyrimidine-6-carboxamide] | 11 nM |

More lines, now with the values ahead:

| IC50 | Compound |
| --- | --- |
| 27 nM | CNC(=O)CNC(=O)c1sc2ncnc(Nc3cccnc3OC(C)C)c2c1C [Compound 36-7, 4-(2-Isopropoxypyridin-3ylamino)-5-methyl-N-(2-(methylamino)-2-oxoethyl)thieno[2,3-d]pyrimidine-6-carboxamide] |
| 8 nM | Cc1c(C(N)=O)sc2ncnc(Nc3ccc(F)cc3OCC3CC3(F)F)c12 (stereo not drawn) [Compound 32-21] |
| 26 nM | Cc1c(C(=O)NCCCN(C)C)sc2ncnc(Nc3ccc(F)cc3OCCC(F)(F)F)c12 [Compound 32-38] |
| 12 nM | Cc1c(C(=O)O)sc2ncnc(Nc3ccc(F)cc3OCC(C)F)c12 (stereo not drawn) [Compound 32-12] |
| 13 nM | COCC(CF)Oc1cc(F)ccc1Nc1ncnc2sc(C(=O)NCCO)c(C)c12 (stereo not drawn) [Compound 32-25] |
| 25 nM | COCC(C)Oc1cc(F)ccc1Nc1ncnc2sc(C(=O)NCCO)c(C)c12 (stereo not drawn) [Compound 32-36] |
| 19 nM | Cc1c(C(=O)NCc2cnco2)sc2ncnc(Nc3cccnc3OC(C)C)c12 [Compound 36-8, 4-(2-Isopropoxypyridin-3ylamino)-5-methyl-N-(oxazol-5-ylmethyl)thieno[2,3-d]pyrimidine-6-carboxamide] |
| 65 nM | Cc1c(C(=O)NCCO)sc2ncnc(Nc3ccc(F)cc3OCC3(CC#N)CC3)c12 [Compound 32-14] |
| 19 nM | Cc1c(C(=O)O)sc2ncnc(Nc3ccc(F)cc3OCC3(CC#N)CC3)c12 [Compound 32-2] |
| 7 nM | Cc1c(C(=O)NCCO)sc2ncnc(Nc3ccc(F)cc3OC(C)CF)c12 (stereo not drawn) [Compound 32-27] |
| 66 nM | Cc1c(C(=O)NCCCN(C)C)sc2ncnc(Nc3ccc(F)cc3OCC(F)(F)F)c12 [Compound 32-16] |
